Reference: patent US20080227643A1, “Use of adjuvants to improve abscisic acid analog and abscisic acid derivative performance” (priority 2007, published 2008)
Values joined by “and” are separate entries in the source; they are usually repeats but may differ in a detail not shown here. Equal entries are not always repeated.

System: tomato leaf transpiration
Assay: tomato leaf transpiration inhibition bioassay (foliar application, porometer)
Format: in vivo, Tomato (variety: Rutgers)
Conditions: 25 ppm ABA analog foliar applied; for Transpiration rate (% of control): 20 mL/6 plants
Protocol: ABA analog effectiveness may be measured experimentally by quantifying the inhibition of transpiration in tomato leaves; this is a reliable laboratory bioassay of the level of ABA activity.
All the research studies were conducted in the greenhouse at the research farm of Valent BioSciences Corporation (Long Grove, Ill.). Tomato (variety: Rutgers) seeds were sown in 18-cell flats filled with Promix PGX (available from Premier Horticulture Inc. Quakertown, Pa.) three weeks for germination and initial growth. Plants were then transplanted into pots (18 cm in diameter and 18 cm in height) filled with Promix BX (available from Premier Horticulture Inc. Quakertown, Pa.) and grown for one or two more weeks before treatment, depending on greenhouse temperature. During growing periods, plants received daily irrigation and weekly fertilizer (1 g/L all purpose fertilizer 20-20-20, The Scotts Company, Marysville, Ohio).
Chemical solutions were prepared with distilled water. ABA analogs, 8′ acetylene-ABA, acid (PBI-524) and 8′ acetylene-ABA methyl ester (PBI-429) were available from Plant Biotechnology Institute, National Research Council of Canada (Saskatoon, Saskatchewan, Canada). 25 ppm PBI-429 or 25 ppm PBI-524 was prepared by dissolving 25 mg chemical in 1 L distilled water.
Tween 20 and Brij 98 were available from Uniqema (New Castle, Del.). Silwet L-77 was available from GE Silicones (Wilton, Conn.). Agral 90 was available from Norac Concept. Inc. (Orleans, Ontario, Canada). Kinetic was available from Setre Chemical Company (Memphis, Tenn.). Capsil was available from Aquatrols (Paulsboro, N.J.). Urea and ammonium nitrate (NH4NO3) were available from Sigma-Aldrich (St. Louis, Mo.). Ethyl lactate was available from Fluka Chemie (GmbH, Buchs, Germany). Surfactant was added to 250-ppm ABA or 25-ppm ABA analogs at the concentration of 0.05% or 0.5% (v/v). Since Brij 98 was a waxy substance and difficult to dissolve in water, a stock solution of 25% Brij 98 was prepared by dissolving 25 g Brij 98 in 75 g ethyl lactate and this solution was easily dissolve in water.
Chemical solutions were foliar applied to tomato plant leaves at the rate of 20 mL/6 plants. Plants were then placed in a transparent chamber with humidity controlled at relative humidity 40 to 60%. […] The transpiration rate of each treatment was calculated as the percentage of that of control at each day to reduce day-to-day variation caused by changes of environmental condition such as light intensity and temperature.
All experiments were randomized complete block experimental design. Data were analyzed by analysis of variance. Duncan's new multiple range tests at α=0.05 were used for mean separations.

[1] = average over 7 days (days 1, 2, 3, 4, 7)

SMILES | Transpiration rate (% of control) (1 day after treatment) | Transpiration rate (% of control) (2 days after treatment) | Transpiration rate (% of control) (3 days after treatment) | Transpiration rate (% of control) (4 days after treatment) | Transpiration rate (% of control) (7 days after treatment) | Transpiration rate (% of control), Average (average of days 1, 2, 3 (Table 11)) | Transpiration rate (% of control), Average [1]
C#CC1(C)CC(=O)C=C(C)C1(O)/C=C/C(C)=C\C(=O)OC (stereo not shown) [PBI-429, 8′ acetylene-ABA methyl ester] | 102 % of control and 81 % of control and 77 % of control | 87 % of control and 64 % of control and 60 % of control | 86 % of control and 69 % of control and 71 % of control | 77.52 % of control and 78 % of control and 81 % of control and 77 % of control | 95 % of control and 73 % of control | 70 % of control | 74 % of control
C#CC1(C)CC(=O)C=C(C)C1(O)C=CC(C)=CC(=O)O (stereo not shown) [PBI-524, 8′ acetylene-ABA, acid] | 95 % of control and 81 % of control | 87 % of control and 63 % of control | 93 % of control and 69 % of control | 92 % of control and 79 % of control | 101 % of control and 91 % of control |  | 77 % of control
